In patent US8513297B2, “Biaromatic compounds that modulate PPARy type receptors and cosmetic/pharmaceutical compositions comprised thereof” (Galderma Research & Development, priority 2004, dated 2013):
Counter-ions that a name gives are not always drawn.

What was measured:
Format in all cases: cell-based
PPARγ = biological target: T1, PPARγ (Homo sapiens, UniProt P37231); assay: Crossover-curve PPAR transactivation test, PPARγ; settings: HeLN cells stably transfected with Gal-hPPARγ and luciferase reporter; Schild regression against reference agonist; n.a. means not active; read-out: PPARγ Kd app
T1 construct: Either way it is a handle and not a second protein
T1 sequence (P37231 238-505 limits assumed): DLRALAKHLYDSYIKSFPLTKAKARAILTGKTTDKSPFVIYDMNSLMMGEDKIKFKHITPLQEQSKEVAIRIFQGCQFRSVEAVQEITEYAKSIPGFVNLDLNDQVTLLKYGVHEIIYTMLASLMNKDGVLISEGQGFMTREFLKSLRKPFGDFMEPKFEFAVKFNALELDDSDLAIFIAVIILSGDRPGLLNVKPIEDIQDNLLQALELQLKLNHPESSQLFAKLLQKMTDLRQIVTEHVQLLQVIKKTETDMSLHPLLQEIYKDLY
Experimental: (§1) The activation of PPAR receptors with an agonist (activator) in HeLN cells leads to the expression of a reporter gene, luciferase, which, in the presence of a substrate, generates light. The modulation of the PPAR receptors is measured by quantifying the luminescence produced after incubating the cells in the presence of a reference agonist. The ligands displace the agonist from its site. The measurement of the activity is performed by quantifying the light produced. This measurement makes it possible to determine the modulatory activity of the compounds according to the invention by determining the constant that is the affinity of the molecule for the PPAR receptor. Since this value can fluctuate depending on the basal activity and the expression of the receptor, it is referred to as Kd apparent (KdApp in nM).
(§2) To determine this constant, “crossover curves” of the test product against a reference agonist are performed in a 96-well plate: 10 concentrations of the test product plus a concentration 0 are arranged in a line, and 7 concentrations of the agonist plus a concentration 0 are arranged in a column. This is 88 measurement points for 1 product and 1 receptor. The remaining 8 wells are used for repeatability controls.
(§3) Measurements are also taken for total agonist controls with the same products.
(§4) The HeLN cell lines used are stable transfectants containing the plasmids ERE-βGlob-Luc-SV-Neo (reporter gene) and PPAR (α, δ, γ) Gal-hPPAR. These cells are inoculated into 96-well plates at a rate of 10 000 cells per well in 100 μl of DMEM medium without phenol red and supplemented with 10% of defatted calf serum. The plates are then incubated at 37° C. and 7% CO2 for 16 hours.
(§5) The various dilutions of the test products and of the reference ligand are added at a rate of 5 μl per well. The plates are then incubated for 18 hours at 37° C. and 7% CO2. The culture medium is removed by turning over and 100 μl of a 1:1 PBS/luciferine mixture are added to each well. After 5 minutes, the plates are read by the luminescence detector.

PPARδ = biological target: T2, PPARδ (Homo sapiens, UniProt Q03181); assay: Crossover-curve PPAR transactivation test, PPARδ; settings: HeLN cells stably transfected with Gal-hPPARδ and luciferase reporter; Schild regression against reference agonist; n.a. means not active; read-out: PPARδ Kd app
T2 construct: Either way it is a handle and not a second protein
T2 sequence (Q03181 211-441 limits assumed): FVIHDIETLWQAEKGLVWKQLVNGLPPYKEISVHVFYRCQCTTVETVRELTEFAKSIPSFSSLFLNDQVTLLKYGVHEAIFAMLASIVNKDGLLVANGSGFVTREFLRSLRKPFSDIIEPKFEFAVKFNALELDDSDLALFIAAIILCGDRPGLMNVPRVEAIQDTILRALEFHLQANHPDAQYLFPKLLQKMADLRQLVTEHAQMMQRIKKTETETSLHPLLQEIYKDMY
Experimental: as §1
To determine this constant, “crossover curves” of the test product against a reference agonist are performed in a 96-well plate: 10 concentrations of the test product plus a concentration 0 are arranged in a line, and 7 concentrations of the agonist plus a concentration 0 are arranged in a column. This is 88 measurement points for 1 product and 1 receptor. […]
The various dilutions of the test products and of the reference ligand are added at a rate of 5 μl per well. […] After 5 minutes, the plates are read by the luminescence detector.

PPARα = biological target: T3, PPARα (Homo sapiens, UniProt Q07869); assay: Crossover-curve PPAR transactivation test, PPARα; settings: HeLN cells stably transfected with Gal-hPPARα and luciferase reporter; Schild regression against reference agonist; n.a. means not active; read-out: PPARα Kd app
T3 construct: Either way it is a handle and not a second protein
T3 sequence (Q07869 200-468 limits assumed): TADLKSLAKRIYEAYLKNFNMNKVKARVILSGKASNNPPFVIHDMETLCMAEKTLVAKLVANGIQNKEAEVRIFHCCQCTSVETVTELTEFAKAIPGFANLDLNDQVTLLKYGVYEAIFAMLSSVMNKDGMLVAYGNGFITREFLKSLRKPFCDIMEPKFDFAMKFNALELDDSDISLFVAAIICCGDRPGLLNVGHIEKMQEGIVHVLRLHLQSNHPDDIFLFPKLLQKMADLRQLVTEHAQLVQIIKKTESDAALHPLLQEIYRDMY
Experimental: as §1, §2, §3, §4, §5

CCCCCCCC(=O)N(C)Cc1cccc(-c2ccc(/C=C/C(=O)O)s2)c1 [Example 1, 3-(5-{3-[(methyloctanoylamino)methyl]phenyl}thiophen-2-yl)acrylic acid] was tested, and the Kd (PPARγ) was 1000 nM.
With CCCCCCCC(=O)N(C)Cc1cccc(-c2ccc(CCC(=O)O)s2)c1 [Example 2, 3-(5-{3-[(methyloctanoylamino)methyl]phenyl}thiophen-2-yl)propanoic acid] the Kd (PPARγ) was 500 nM.
CCCCCCCNC(=O)N(C)c1cccc(-c2ccc(CCC(=O)O)cc2)n1 [Example 6, 3-{4-[6-(3-heptyl-1-methylureido)pyrid-2-yl]phenyl}propanoic acid] showed a Kd (PPARδ) of 4 µM and a Kd (PPARγ) of 250 nM.
CCCCCCCNC(=O)N(C)c1cccc(-c2ccc(CCC(=O)O)cn2)c1 [Example 7, 3-{6-[3-(3-heptyl-1-methylureido)phenyl]pyrid-3-yl}propanoic acid] gave a Kd (PPARγ) of 60 nM.
Compound CCCCCCCNC(=O)N(C)c1ccnc(-c2ccc(CCC(=O)O)cc2)c1 [Example 8, 2-[4-(2-carboxyethyl)phenyl]-4-(3-heptyl-1-methylureido)pyridinium acetate] has a Kd (PPARγ) of 1000 nM.
With CCCCCNC(=O)N(C)c1cccc(-c2ccc(CCC(=O)O)cc2OCCCC)n1 [Example 11, 2-[2-butoxy-4-(2-carboxyethyl)phenyl]-6-(1-methyl-3-pentylureido)pyridinium hydrochloride] the Kd (PPARγ) was 120 nM and the Kd (PPARα) was 2 µM.
In the case of CCCCCCCNC(=O)N(C)c1cccc(-c2ccc(CCC(=O)O)cc2OCCCC)n1 [Example 12, 2-[2-butoxy-4-(2-carboxyethyl)phenyl]-6-(1-methyl-3-heptylureido)pyridinium hydrochloride], the Kd (PPARγ) is reported as 15 nM and the Kd (PPARα) is reported as 4 µM.
CCCCCCCNC(=O)N(C)c1cccc(-c2ccc(CCC(=O)O)cc2OCC)n1 [Example 13, 2-[4-(2-carboxyethyl)-2-ethoxyphenyl]-6-(3-heptyl-1-methylureido)pyridinium hydrochloride] was tested, and the Kd (PPARδ) was 8 µM, the Kd (PPARγ) was 120 nM and the Kd (PPARα) was 4 µM.
For CCCCCCCC(=O)N(C)Cc1cc(-c2ccc(CCC(=O)O)cc2OCCCC)cs1 [Example 14, 3-(3-butoxy-4-{5-[(methyloctanoylamino)methyl]thiophen-3-yl}phenyl)propanoic acid], the Kd (PPARγ) was 2 nM.
Compound CCCCOc1cc(CCC(=O)O)ccc1-c1csc(CN(C)C(=O)c2ccc(OC)cc2)c1 [Example 15, 3-[3-butoxy-4-(5-{[(4-methoxybenzoyl)methylamino]methyl}thiophen-3-yl)phenyl]propanoic acid] has a Kd (PPARγ) of 30 nM.
Compound CCCCOc1cc(CCC(=O)O)ccc1-c1csc(CN(C)C(=O)c2cccc(OC)c2)c1 [Example 16, 3-[3-butoxy-4-(5-{[(3-methoxybenzoyl)methylamino]methyl}thiophen-3-yl)phenyl]propanoic acid] has a Kd (PPARγ) of 30 nM.
